Measurements published in ChEMBL document CHEMBL5625190, “Novel fused imidazotriazines acting as promising top. II inhibitors and apoptotic inducers with greater selectivity against head and neck tumors: Design, synthesis, and biological assessments” (Eur J Med Chem, 2023).
Values after ≈ are worked out from the molar mass of the structure shown.

Experiments:
[1] = molecular target: DNA topoisomerase 2-beta (Homo sapiens) (UniProt Q02880); assay: Inhibition of human DNA topoisomerase 2-beta by ELISA method relative to control; conditions: concentration not given here
HNO 97 cell line [2] = assay: Induction of cell cycle arrest in human HNO 97 cell line assessed as increase in cell level at G2-M phase by flow cytometry analysis (reference value: 0.66%); type: functional
PC-3 = assay: Growth inhibition of human PC-3 cells assessed as reduction in cell viability at 100 ug/ml by SRB colorimetric assay relative to control; type: functional; conditions: read-out: GI
[3] = Downregulation of BCL2 expression in human HNO 97 cell line assessed as fold change by sandwich ELISA analysis; type: functional
NCI-H460 = assay: Growth inhibition of human NCI-H460 cells assessed as reduction in cell viability at 100 ug/ml by SRB colorimetric assay relative to control; type: functional; conditions: read-out: GI
HNO 97 cell line [4] = assay: Induction of apoptosis in human HNO 97 cell line assessed as increase in early apoptotic cells by Annexin-V/PI staining based analysis (reference value: 0.23%); type: functional
Huh-7 = assay: Growth inhibition of human Huh-7 cells assessed as reduction in cell viability at 100 ug/ml by SRB colorimetric assay relative to control; type: functional; conditions: read-out: GI
MCF7 = assay: Growth inhibition of human MCF7 cells assessed as reduction in cell viability at 100 ug/ml by SRB colorimetric assay relative to control; type: functional; conditions: read-out: GI
A-375 = assay: Growth inhibition of human A-375 cells assessed as reduction in cell viability at 100 ug/ml by SRB colorimetric assay relative to control; type: functional; conditions: read-out: GI
HNO 97 cell line [5] = assay: Antioxidant activity against human HNO 97 cell line assessed as NO level measured after 48 hrs relative to control; type: functional
HNO 97 cell line [6] = assay: Induction of apoptosis in human HNO 97 cell line assessed as increase in late apoptotic cells by Annexin-V/PI staining based analysis (reference value: 0.12%); type: functional
MDA-MB-231 [7] = assay: Growth inhibition of human MDA-MB-231 cells assessed as reduction in cell viability at 100 ug/ml by SRB colorimetric assay relative to control; type: functional; conditions: read-out: GI
A549 = assay: Growth inhibition of human A549 cells assessed as reduction in cell viability at 100 ug/ml by SRB colorimetric assay relative to control; type: functional; conditions: read-out: GI
Caco-2 = assay: Growth inhibition of human Caco-2 cells assessed as reduction in cell viability at 100 ug/ml by SRB colorimetric assay relative to control; type: functional; conditions: read-out: GI
[8] = Growth inhibition of human Oral epithelial cell assessed as reduction in cell viability at 100 ug/ml by SRB colorimetric assay relative to control; type: toxicity, cell-based; conditions: oral epithelial cells, at 100 µg/mL, read-out: GI
HNO 97 cell line [9] = assay: Antioxidant activity against human HNO 97 cell line assessed as MDA level measured after 48 hrs relative to control; type: functional
[10] = Upregulation of p53 expression in human HNO 97 cell line assessed as fold change by sandwich ELISA analysis; type: functional
BT-474 = assay: Growth inhibition of human BT-474 cells assessed as reduction in cell viability at 100 ug/ml by SRB colorimetric assay relative to control; type: functional; conditions: read-out: GI
[11] = Upregulation of BAX expression in human HNO 97 cell line assessed as fold change by sandwich ELISA analysis; type: functional
HepG2 [12] = assay: Growth inhibition of human HepG2 cells assessed as reduction in cell viability at 100 ug/ml by SRB colorimetric assay relative to control; type: functional; conditions: read-out: GI
HNO 97 cell line [13] = assay: Growth inhibition of human HNO 97 cell line assessed as reduction in cell viability at 100 ug/ml by SRB colorimetric assay relative to control; type: functional; conditions: read-out: GI
HNO 97 cell line [14] = assay: Growth inhibition of human HNO 97 cell line assessed as reduction in cell viability by SRB colorimetric assay; type: functional, cell-based
HNO 97 cell line [15] = assay: Antioxidant activity against human HNO 97 cell line assessed as increase in GSH level measured after 48 hrs by Ellmans method relative to control; type: functional
HCT-116 = assay: Growth inhibition of human HCT-116 cells assessed as reduction in cell viability at 100 ug/ml by SRB colorimetric assay relative to control; type: functional; conditions: read-out: GI
HepG2 [16] = assay: Growth inhibition of human HepG2 cell line assessed as reduction in cell viability by SRB colorimetric assay; type: functional, cell-based
MG-63 = assay: Growth inhibition of human MG-63 cells assessed as reduction in cell viability at 100 ug/ml by SRB colorimetric assay relative to control; type: functional; conditions: read-out: GI
[17] = Downregulation of IL-6 expression in human HNO 97 cell line assessed as fold change by sandwich ELISA analysis; type: functional
MDA-MB-231 [18] = assay: Growth inhibition of human MDA-MB-231 cell line assessed as reduction in cell viability by SRB colorimetric assay; type: functional, cell-based
HNO 97 cell line [19] = assay: Induction of cell cycle arrest in human HNO 97 cell line assessed as increase in cell level at S phase by flow cytometry analysis (reference value: 23.37%); type: functional
[20] = molecular target: T1, DNA topoisomerase 2-alpha (Homo sapiens, UniProt P11388); assay: Inhibition of human DNA topoisomerase 2alpha
HL-60 = assay: Antiproliferative activity against human HL-60 cells; type: functional, cell-based
Calf thymus DNA = assay: Displacement of methyl green from calf thymus DNA assessed as DNA intercalation measured after 24 hrs; type: nucleic-acid assay, Bos taurus
[21] = molecular target: T1, DNA topoisomerase 2-alpha; assay: Inhibition of human DNA topoisomerase 2alpha using supercoiled pHot1 DNA as substrate incubated for 30 mins

Chain of DNA topoisomerase 2-beta (Homo sapiens) (Q02880 whole entry): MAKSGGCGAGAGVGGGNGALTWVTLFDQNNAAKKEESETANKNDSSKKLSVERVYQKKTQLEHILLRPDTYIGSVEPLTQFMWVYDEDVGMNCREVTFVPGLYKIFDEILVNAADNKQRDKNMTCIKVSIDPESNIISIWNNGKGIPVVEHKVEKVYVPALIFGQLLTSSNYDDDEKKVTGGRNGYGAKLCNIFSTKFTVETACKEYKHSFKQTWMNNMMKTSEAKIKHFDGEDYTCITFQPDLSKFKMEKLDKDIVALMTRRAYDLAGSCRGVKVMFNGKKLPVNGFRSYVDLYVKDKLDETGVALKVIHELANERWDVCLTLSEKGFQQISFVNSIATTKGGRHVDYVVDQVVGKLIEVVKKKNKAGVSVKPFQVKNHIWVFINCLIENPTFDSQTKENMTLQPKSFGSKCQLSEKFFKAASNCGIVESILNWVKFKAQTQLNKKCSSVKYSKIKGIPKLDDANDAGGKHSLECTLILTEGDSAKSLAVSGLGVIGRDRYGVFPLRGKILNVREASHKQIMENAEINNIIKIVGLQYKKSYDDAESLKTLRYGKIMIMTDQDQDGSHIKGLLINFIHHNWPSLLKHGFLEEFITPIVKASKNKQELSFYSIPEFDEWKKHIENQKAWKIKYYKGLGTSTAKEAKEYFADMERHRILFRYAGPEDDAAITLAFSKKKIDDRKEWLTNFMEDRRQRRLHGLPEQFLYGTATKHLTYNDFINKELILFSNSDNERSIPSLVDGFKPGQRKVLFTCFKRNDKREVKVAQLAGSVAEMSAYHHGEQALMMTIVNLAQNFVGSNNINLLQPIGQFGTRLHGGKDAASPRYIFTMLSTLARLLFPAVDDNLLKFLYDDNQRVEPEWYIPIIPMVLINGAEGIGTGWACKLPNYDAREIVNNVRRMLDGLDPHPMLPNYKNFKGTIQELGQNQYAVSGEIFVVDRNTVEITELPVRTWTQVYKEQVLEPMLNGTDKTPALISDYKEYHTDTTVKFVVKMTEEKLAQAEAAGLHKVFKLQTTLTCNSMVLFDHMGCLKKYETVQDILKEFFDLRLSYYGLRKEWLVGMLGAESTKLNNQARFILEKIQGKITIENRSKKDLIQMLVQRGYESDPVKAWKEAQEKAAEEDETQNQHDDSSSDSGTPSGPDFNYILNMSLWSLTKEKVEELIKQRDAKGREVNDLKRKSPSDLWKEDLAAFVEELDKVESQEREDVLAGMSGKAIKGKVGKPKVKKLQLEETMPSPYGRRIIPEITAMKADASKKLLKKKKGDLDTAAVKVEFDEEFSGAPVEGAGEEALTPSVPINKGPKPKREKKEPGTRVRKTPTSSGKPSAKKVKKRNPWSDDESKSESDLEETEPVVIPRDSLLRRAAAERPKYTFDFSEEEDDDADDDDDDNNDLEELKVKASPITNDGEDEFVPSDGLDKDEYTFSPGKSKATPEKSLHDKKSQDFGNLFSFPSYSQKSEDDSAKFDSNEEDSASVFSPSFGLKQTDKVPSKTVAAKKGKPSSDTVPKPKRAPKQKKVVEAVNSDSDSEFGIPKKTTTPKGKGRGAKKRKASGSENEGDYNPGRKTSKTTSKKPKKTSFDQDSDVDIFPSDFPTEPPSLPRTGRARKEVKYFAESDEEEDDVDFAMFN
T1 sequence (P11388 whole entry): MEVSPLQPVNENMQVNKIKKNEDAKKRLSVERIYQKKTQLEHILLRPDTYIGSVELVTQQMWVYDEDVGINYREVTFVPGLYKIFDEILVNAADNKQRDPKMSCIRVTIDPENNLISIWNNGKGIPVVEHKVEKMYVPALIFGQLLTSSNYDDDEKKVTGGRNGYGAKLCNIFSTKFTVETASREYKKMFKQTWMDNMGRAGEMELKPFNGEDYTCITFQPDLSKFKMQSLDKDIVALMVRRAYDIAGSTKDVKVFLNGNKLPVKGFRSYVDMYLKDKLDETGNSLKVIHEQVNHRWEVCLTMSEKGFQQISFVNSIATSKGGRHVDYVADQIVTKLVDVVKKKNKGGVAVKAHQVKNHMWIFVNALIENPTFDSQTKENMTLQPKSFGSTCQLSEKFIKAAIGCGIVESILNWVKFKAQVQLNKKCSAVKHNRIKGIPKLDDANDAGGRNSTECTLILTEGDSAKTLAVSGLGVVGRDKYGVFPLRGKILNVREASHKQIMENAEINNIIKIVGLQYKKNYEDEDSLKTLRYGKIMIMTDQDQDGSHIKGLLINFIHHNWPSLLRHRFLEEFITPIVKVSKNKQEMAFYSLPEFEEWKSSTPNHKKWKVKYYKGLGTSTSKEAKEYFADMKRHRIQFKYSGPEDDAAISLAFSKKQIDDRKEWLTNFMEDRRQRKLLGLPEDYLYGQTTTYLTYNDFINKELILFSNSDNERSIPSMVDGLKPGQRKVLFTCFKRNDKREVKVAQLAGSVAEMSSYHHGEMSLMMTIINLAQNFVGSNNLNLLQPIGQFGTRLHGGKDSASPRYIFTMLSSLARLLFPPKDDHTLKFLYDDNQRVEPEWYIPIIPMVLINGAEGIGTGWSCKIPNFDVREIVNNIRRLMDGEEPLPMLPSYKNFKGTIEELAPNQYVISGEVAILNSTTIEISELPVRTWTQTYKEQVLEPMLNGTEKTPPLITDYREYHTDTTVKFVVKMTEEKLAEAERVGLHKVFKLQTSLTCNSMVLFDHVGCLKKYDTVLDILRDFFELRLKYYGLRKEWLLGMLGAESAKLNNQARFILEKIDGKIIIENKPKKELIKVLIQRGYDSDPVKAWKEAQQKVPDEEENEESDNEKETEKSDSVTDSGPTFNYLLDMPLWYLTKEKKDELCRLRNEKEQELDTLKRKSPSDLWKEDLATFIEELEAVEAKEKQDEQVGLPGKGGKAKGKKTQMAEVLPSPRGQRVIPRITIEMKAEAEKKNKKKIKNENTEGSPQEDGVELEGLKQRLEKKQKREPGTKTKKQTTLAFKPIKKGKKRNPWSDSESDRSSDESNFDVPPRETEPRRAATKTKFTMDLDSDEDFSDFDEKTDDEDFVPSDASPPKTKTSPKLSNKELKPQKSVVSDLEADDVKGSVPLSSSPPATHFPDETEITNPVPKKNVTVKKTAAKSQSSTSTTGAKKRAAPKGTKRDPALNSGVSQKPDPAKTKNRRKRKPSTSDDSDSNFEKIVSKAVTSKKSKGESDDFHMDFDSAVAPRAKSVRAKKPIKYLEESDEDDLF

| SMILES | inhibition [1] | Activity (HNO 97 cell line [2]) | inhibition of growth at 100 µg/mL (PC-3) | fold change (FC) [3] | inhibition of growth at 100 µg/mL (NCI-H460) | inhibition of growth at 100 µg/mL (Huh-7) | inhibition of growth at 100 µg/mL (MCF7) | inhibition of growth at 100 µg/mL (A-375) | inhibition of growth at 100 µg/mL (MDA-MB-231 [7]) | inhibition of growth at 100 µg/mL (A549) | inhibition of growth at 100 µg/mL (Caco-2) | inhibition at 100 ug/ml [8] | inhibition of growth at 100 µg/mL (BT-474) | inhibition of growth at 100 µg/mL (HepG2 [12]) | inhibition of growth at 100 µg/mL (HNO 97 cell line [13]) | IC50 (HNO 97 cell line [14]) | inhibition of growth at 100 µg/mL (HCT-116) | IC50 (HepG2 [16]) | inhibition of growth at 100 µg/mL (MG-63) | IC50 (MDA-MB-231 [18]) | also measured |
| --- | --- | --- | --- | --- | --- | --- | --- | --- | --- | --- | --- | --- | --- | --- | --- | --- | --- | --- | --- | --- | --- |
| NC1=Nc2nc3ccccc3n2C(c2ccc(Cl)c(Cl)c2)N1 (stereo unspecified) | 81.7% | 4.99% | 75.5% | 0.24 | 73.4% | 72.5% | 62% | 63% | 75% | 67.5% | 50.7% | 41.6% | 57.7% | 63.6% | 78% | 3 µg/mL (≈ 9.03 µM) | 51.1% | 4.8 µg/mL (≈ 14.4 µM) | 66.4% | 4 µg/mL (≈ 12 µM) | Activity (HNO 97 cell line [4]): 9.27%; Activity (HNO 97 cell line [5]): 62.06%; Activity (HNO 97 cell line [6]): 0.9%; Activity (HNO 97 cell line [9]): 51.93%; fold change (FC) [10]: 2.16; fold change (FC) [11]: 2.39; Activity (HNO 97 cell line [15]): 189.32%; fold change (FC) [17]: 0.67; Activity (HNO 97 cell line [19]): 58.07% |
| O=C(N/N=C/c1ccncc1)c1cccc2c(=O)c3ccccc3[nH]c12 |  |  |  |  |  |  |  |  |  |  |  |  |  |  |  |  |  |  |  |  | IC50 [20]: 2.26 µM; IC50 (HL-60): 0.48 µM |
| CCCc1nnc2c3ccccc3c(N/N=C/c3ccc([N+](=O)[O-])cc3)nn12 |  |  |  |  |  |  |  |  |  |  |  |  |  |  |  |  |  |  |  |  | IC50 (Calf thymus DNA): 26.2 µM; IC50 [21]: 7.02 µM |
| NC1=Nc2nc3ccccc3n2C(c2ccc(Cl)cc2Cl)N1 (stereo unspecified) | 87.9% | 27.94% | 74.3% | 0.15 | 71.8% | 73.6% | 72.6% | 67.2% | 71.5% | 69% | 63.4% | 62.8% | 52.4% | 76.5% | 82.6% | 4 µg/mL (≈ 12 µM) | 51.8% | 9 µg/mL (≈ 27.1 µM) | 66.7% | 10 µg/mL (≈ 30.1 µM) | Activity (HNO 97 cell line [4]): 4.99%; Activity (HNO 97 cell line [5]): 56.5%; Activity (HNO 97 cell line [6]): 1.42%; Activity (HNO 97 cell line [9]): 46.33%; fold change (FC) [10]: 2.32; fold change (FC) [11]: 2.46; Activity (HNO 97 cell line [15]): 177.01%; fold change (FC) [17]: 0.64; Activity (HNO 97 cell line [19]): 46.4% |
| O=C(NNC(=O)c1ccc(Nc2nc3ccccc3n3cnnc23)cc1)NC1CCCCC1 |  |  |  |  |  |  |  |  |  |  |  |  |  |  |  |  |  |  |  |  | IC50 (Calf thymus DNA): 25.3 µM |
| COc1cccc2c1C(=O)c1c(O)c3c(c(O)c1C2=O)C[C@@](O)(C(=O)CO)C[C@@H]3O[C@H]1C[C@H](N)[C@H](O)[C@H](C)O1 [DOXORUBICIN] | 86.4% |  | 68% |  | 73.6% | 74.8% | 69% | 64.1% | 78.2% | 49% | 80.8% | 70.4% | 44.7% | 59.3% | 80.3% | 9 µg/mL (≈ 16.6 µM) | 71.3% | 4.6 µg/mL (≈ 8.46 µM) | 69.9% | 8.6 µg/mL (≈ 15.8 µM) |  |
